One may read the IC50 as the concentration at which inhibition is half-maximal. The melting point is the temperature, or range, at which the solid turns liquid.

For 14 compounds, IC50 and melting point results are on record in patent publication US7514452B2, “2-furancarboxylic acid hydrazides and pharmaceutical compositions containing the same” (Dainippon Pharmaceutical Co., Ltd, priority 2002, dated 2009).

Data set [1] deals with glucagon receptor (Mus musculus, UniProt Q61606). The data set can be described thus: Experiment for glucagon binding inhibition, mouse hepatic membrane (125I-glucagon). The settings on record: male ddY mouse hepatic membrane, 125I-glucagon 50 pM, 25° C. for 30 minutes; read-out: Glucagon binding inhibitory activity IC50 (nM) Mouse. The gist of the method:
(§1)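 Liver membranes from male SD rats or male ddY mice were incubated with 125I-glucagon and compound for 30 min at 25 °C. Bound radioactivity was collected on filters washed with pH 7.2 Tris-HCl and counted by γ counter, in duplicate. IC50 was taken from a pseudo Hill plot.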

Data set [2] has as its target glucagon receptor (Rattus norvegicus, UniProt P30082). Description: Experiment for glucagon binding inhibition, rat hepatic membrane (125I-glucagon). As to conditions: male SD rat hepatic membrane, 125I-glucagon 50 pM, 25° C. for 30 minutes; read-out: Glucagon binding inhibitory activity IC50 (nM) Rat. In outline: as §1

Sequence of glucagon receptor (Mus musculus, UniProt Q61606) (Q61606 27-485): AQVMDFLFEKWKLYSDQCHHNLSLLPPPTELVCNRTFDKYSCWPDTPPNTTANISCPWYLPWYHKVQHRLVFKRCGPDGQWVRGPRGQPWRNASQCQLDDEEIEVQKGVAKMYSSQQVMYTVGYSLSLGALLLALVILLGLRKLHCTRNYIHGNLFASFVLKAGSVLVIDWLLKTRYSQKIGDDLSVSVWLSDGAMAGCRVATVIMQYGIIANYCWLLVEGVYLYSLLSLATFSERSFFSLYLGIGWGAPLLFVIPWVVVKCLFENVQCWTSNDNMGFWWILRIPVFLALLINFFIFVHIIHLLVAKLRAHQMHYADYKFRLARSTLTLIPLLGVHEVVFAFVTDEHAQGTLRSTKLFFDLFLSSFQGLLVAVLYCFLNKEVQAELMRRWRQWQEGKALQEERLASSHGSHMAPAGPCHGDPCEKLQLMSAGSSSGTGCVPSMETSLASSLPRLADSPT
Sequence of glucagon receptor (Rattus norvegicus, UniProt P30082) (P30082 27-485): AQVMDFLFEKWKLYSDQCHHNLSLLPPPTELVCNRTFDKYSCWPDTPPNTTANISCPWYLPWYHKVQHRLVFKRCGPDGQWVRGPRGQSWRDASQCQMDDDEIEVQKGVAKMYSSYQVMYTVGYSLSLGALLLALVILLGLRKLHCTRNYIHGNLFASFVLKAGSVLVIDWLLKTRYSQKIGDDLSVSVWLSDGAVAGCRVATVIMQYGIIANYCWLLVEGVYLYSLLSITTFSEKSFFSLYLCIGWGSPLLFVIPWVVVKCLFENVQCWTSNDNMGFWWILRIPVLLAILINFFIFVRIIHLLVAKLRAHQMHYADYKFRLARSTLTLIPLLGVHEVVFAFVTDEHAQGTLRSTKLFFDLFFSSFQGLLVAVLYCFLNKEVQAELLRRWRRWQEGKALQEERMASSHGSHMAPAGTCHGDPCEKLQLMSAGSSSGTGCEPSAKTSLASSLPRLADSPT

With `Cn1ccc2cc(-c3ccoc3C(=O)NNC(=O)c3ccc(O)c([N+](=O)[O-])c3)ccc21` [Example 208], the melting point fell in the range of 185 to 187 °C. For the same compound, the IC50 in data set [1] was determined as 270 nM. Also, in data set [2], the IC50 was found to be 290 nM.

Compound `C=CCOc1cccc(-c2ccoc2C(=O)NNC(=O)c2ccc(O)c([N+](=O)[O-])c2)c1` [Example 199, 3-[3-(2-Allyloxy)phenyl]-2-furancarboxylic acid 2-(4-hydroxy-3-nitrobenzoyl)hydrazide] returned a melting point of 126 to 131 °C. The IC50 in data set [1] was 75 nM. Besides, in data set [2], the IC50 is 99 nM.

As for `CCc1ccc(-c2ccoc2C(=O)NNC(=O)c2ccc(O)c([N+](=O)[O-])c2)cc1` [Example 156, 3-(4-Ethylphenyl)-2-furancarboxylic acid 2-(4-hydroxy-3-nitrobenzoyl)hydrazide], the melting point lay within 189 to 191 °C. For the same compound, in data set [1], the IC50 is 45 nM. Further, the IC50 in data set [2] was determined as 44 nM.

Turning to `CCCCCOc1cccc(-c2ccoc2C(=O)NNC(=O)c2ccc(O)c([N+](=O)[O-])c2)c1` [Example 182, 3-(3-Pentyloxyphenyl)-2-furancarboxylic acid 2-(4-hydroxy-3-nitrobenzoyl)hydrazide], the melting point is 96 to 99 °C. Also, in data set [1], the IC50 is 50 nM. Further, the IC50 in data set [2] is 49 nM.

Take `O=C(NNC(=O)c1occc1-c1ccccc1)c1ccc(O)c([N+](=O)[O-])c1` [Example 143, 3-Phenyl-2-furancarboxylic acid 2-(4-hydroxy-3-nitrobenzoyl)hydrazide]: the melting point lay within 154 to 156 °C. Also, the IC50 in data set [1] is 56 nM. For the same compound, the IC50 in data set [2] came out at 89 nM.

Compound `O=C(NNC(=O)c1occc1-c1cccc(OCc2cccc3ccccc23)c1)c1ccc(O)c([N+](=O)[O-])c1` [Example 203] came in with a melting point of 152 to 153 °C. For the same compound, the IC50 in data set [1] stood at 7.7 nM. Besides, the IC50 in data set [2] came out at 7.9 nM.

In turn, `CC=CCOc1cccc(-c2ccoc2C(=O)NNC(=O)c2ccc(O)c([N+](=O)[O-])c2)c1` [Example 198, 3-[3-(2-Butenyloxy)phenyl]-2-furancarboxylic acid 2-(4-hydroxy-3-nitrobenzoyl)hydrazide] came in with a melting point of 113 to 115 °C. In addition, in data set [1], the IC50 came to 20 nM. Besides, in data set [2], the IC50 worked out at 75 nM.

For the compound `Cc1cccc(COc2ccc(-c3ccoc3C(=O)NNC(=O)c3ccc(O)c([N+](=O)[O-])c3)cc2)c1` [Example 214], the melting point fell in the range of 162 to 164 °C. Besides, in data set [1], the IC50 came to 39 nM. The concentration for half-maximal inhibition (IC50) in data set [2] was 49 nM.

The compound `CCCc1ccc(-c2ccoc2C(=O)NNC(=O)c2ccc(O)c(C(F)(F)F)c2)cc1` [Example 242] had a melting point of 112 to 114 °C. Moreover, the IC50 in data set [1] is 180 nM. Further, the IC50 in data set [2] came out at 89 nM.

For `O=C(NNC(=O)c1occc1-c1cccc(CCc2ccccc2)c1)c1ccc(O)c([N+](=O)[O-])c1` [Example 232], the melting point is 149 to 152 °C. Moreover, the IC50 in data set [1] was determined as 34 nM. The IC50 in data set [2] amounted to 38 nM.

With `CCCCCOc1ccc(-c2ccoc2C(=O)NNC(=O)c2ccc(O)c(F)c2)cc1` [Example 243], the melting point fell in the range of 103 to 106 °C. For the same compound, the half-inhibitory concentration (IC50) in data set [1] is 290 nM. Also, the IC50 in data set [2] was determined as 380 nM.

As to `CCCCCCCOc1cccc(-c2ccoc2C(=O)NNC(=O)c2ccc(O)c([N+](=O)[O-])c2)c1` [Example 185, 3-(3-Heptyloxyphenyl)-2-furancarboxylic acid 2-(4-hydroxy-3-nitrobenzoyl)hydrazide], the melting point lay in the range of 141 to 144 °C. The IC50 in data set [1] turned out to be 23 nM. The IC50 in data set [2] came out at 20 nM.

`CCCCOc1ccc(-c2ccoc2C(=O)NNC(=O)c2ccc(O)c([N+](=O)[O-])c2)cc1` [Example 161] gave a melting point of 155 to 156 °C. Moreover, in data set [1], the IC50 was 140 nM. The IC50 in data set [2] is 100 nM.

Compound `CC(c1ccccc1)c1cccc(-c2ccoc2C(=O)NNC(=O)c2ccc(O)c([N+](=O)[O-])c2)c1` (stereo not drawn) [Example 230] returned a melting point of 147 to 149 °C. For the same compound, in data set [1], the IC50 amounted to 120 nM. Moreover, the IC50 in data set [2] was determined as 33 nM.
